Measured values: US9540615B2, “Combined chemical and genetic approaches for generation of induced pluripotent stem cells” (The Scripps Research Institute, priority 2008, dated 2017)

Assays:
mES R1 cells = assay: Proliferation assay; type: cell-based, mouse; details: 2 μM BayK, 1 μM BIX or both; 15, 24 and 48 hours; compared to DMSO, n=3
Method: mES R1 cells were plated onto gelatin-coated 6-well plates at a density of 2×10^5 cells/well in complete mES cell media. Upon cell attachment, app. 12 hours, the cells were treated either with DMSO, 1 μM BIX, 2 μM BayK, and a combination of both, in triplicate. At 15, 24 and 48 hours, the cells were detached using trypsin, and counted using a hemocytometer. Trypan blue (Sigma-Aldrich, St. Louis, Mo.) was used for dead cell exclusion.

[1] = tested on: primary OG2 neural progenitor cells; assay: iPS cell induction from neural progenitor cells by retroviral transduction and BIX01294 treatment; type: cell-based, mouse
Method: The reporter neural progenitor cells were generated using a well established protocol by differentiating the Oct4-GiP mESCs grown in monolayer on gelatin in a chemically defined medium/CDM condition in the absence of serum and other growth factors/cytokines at low cell density for eight days, followed by neurophere formation and subsequent serial passaging in single cells in neural cell expansion media supplemented with 10 ng/ml of bFGF and EGF in monolayer for over six passages/24 days. The resulting neural progenitor cells were homogenous by cell morphology and neural marker expression, and were confirmed to be GFP negative and puromycin sensitive. Such neural progenitor cells plated in monolayer in conventional mESC growth media were transduced with combinations of four, three, or two of the four factors, followed by treating the transduced cells with individual small molecules from a small known drug collection in a typical 6-well format. The compound treatment and culture were continued for additional ten days before puromycin was added. The number of green and puro-resistant colonies was counted at day 14. In comparison to the only four-gene transduced neural cells as the positive control, compound conditions that generated more green colonies than the corresponding gene-only conditions were picked as primary hits. To further confirm these primary hit conditions, we chose to use a late passage of mouse CNS neural progenitor cells (Do, J. T. et al., Stem Cells 25, 1013-1020 (2007)) that were derived from fetal brain of OG2^+/−/ROSA26^+/− transgenic mice (which contain an Oct4-GFP reporter) and expanded in monolayer under the same neural CDM condition as the above with 10 ng/ml of bFGF and EGF. Such cells truly from a non-pluripotent tissue would be devoid of concerns of any contaminating ES cell in the above screening system, which is although highly unlikely with all appropriate controls. Similar culture conditions and reprogramming assays were performed using the OG2 neural progenitor cells except that puromycin was not used and green colonies were picked out and characterized by staining of Nanog, SSEA1 and ALP.
mESC-derived or primary OG2 mouse neural progenitor cells were plated into Matrigel (1:50, BD Biosciences) coated 6-well plates at 3.5×10^4 cells/well in the neural progenitor cell expansion media. After one day these cells were transduced with retrovirus for overnight, and the medium was changed into the mESC growth media [DMEM, 5% FBS, 10% KSR, 1× non-essential amino acids (Gibco), 2 mM L-glutamine (Gibco), 0.1 mM β-mercaptoethanol (Gibco) and 10^3 unit/ml LIF (Chemicon)] with or without BIX01294 (0.5-1 μM). GFP-positive iPS cell colonies appeared after 9-14 days, and were picked out and expanded on MEF feeder cells with the mESC growth media.

COc1cc2nc(N3CCCN(C)CC3)nc(NC3CCN(Cc4ccccc4)CC3)c2cc1OC [BIX01294]
proliferation of mES cells (cell number) (mES R1 cells): No significant difference
reprogramming efficiency ([1]; Klf4/Sox2/cMyc with BIX01294, absence of Oct4 expression): relatively low
kinetics of reprogramming ([1]; Oct4/Klf4 viral transduction, BIX01294 0.5-1 μM): didn't significantly shorten the kinetics of reprogramming
reprogramming efficiency (GFP+ iPS cell colonies) ([1]; Oct4/Klf4 viral transduction, BIX01294 0.5-1 μM, 3.5×10^4 cells/well): significantly improve the reprogramming efficiency to or higher than the level of using viral transduction of all four factors
time until GFP+ iPS cell colonies appeared ([1]; after transduction with Oct4/Klf4 retroviruses and BIX01294 treatment): 12 days
generation of iPS cells ([1]; viral transduction of Klf4, Sox2 and cMyc, absence of Oct4 expression, three factors alone gave no colony): can also generate iPS cells
